Data as given in ChEMBL document CHEMBL3102738, “Synthesis and biological evaluation of nitric oxide-donating analogues of sulindac for prostate cancer treatment” (Bioorg Med Chem, 2014).
pIC50: −log10 of the molar value. The source made the active and inactive calls. No cut-off for these calls is given here.

Tests used:
PC-3 [1] = experiment: Cytotoxicity against human PC3 cells assessed as cell viability at 500 nM after 72 hrs by crystal violet method; assay type: functional; settings: PC-3, 72 h, read-out: Activity
[2] = Induction of NO release in glutathione buffer at 400 uM after 1 hr by Griess assay relative to sulindac; assay type: physicochemical
PC-3 [3] = experiment: Cytotoxicity against human PC3 cells assessed as cell viability at 50 uM after 48 hrs by crystal violet method (reference value: 100.87 +/- 4.87%); assay type: functional; settings: PC-3, 48 h, read-out: Activity
PC-3 [4] = experiment: Cytotoxicity against human PC3 cells assessed as cell viability at 50 uM after 24 hrs by crystal violet method (reference value: 99.09 +/- 9.87%); assay type: functional; settings: PC-3, 24 h, read-out: Activity
PC-3 [5] = experiment: Cytotoxicity against human PC3 cells assessed as cell viability at 50 uM after 72 hrs by crystal violet method (reference value: 95.69 +/- 7.66%); assay type: functional; settings: PC-3, 72 h, read-out: Activity
[6] = Induction of NO release in glutathione buffer assessed as nitrite level at 400 uM after 1 hr by Griess assay (reference value: 3.3 +/- 1.2 uM); assay type: physicochemical
PC-3 [7] = experiment: Cytotoxicity against human PC3 cells after 72 hrs by crystal violet method; assay type: functional, cell-based; settings: PC-3, 72 h
PC-3 [8] = experiment: Cytotoxicity against human PC3 cells at 50 nM after 72 hrs by crystal violet method; assay type: functional, cell-based
PC-3 [9] = experiment: Cytotoxicity against human PC3 cells at 0.05 to 0.5 uM after 72 hrs by crystal violet method

Row | Structure (SMILES) | viability at 0.5 µM (PC-3 [1]) | Activity [2] | viability at 50 µM (PC-3 [3]) | viability at 50 µM (PC-3 [4]) | viability at 50 µM (PC-3 [5]) | Activity [6] | pIC50 (PC-3 [7]) | Activity (PC-3 [8]) | Activity (PC-3 [9])
1 | CSc1ccc(/C=C2/C(C)=C(CC(=O)OCCOc3no[n+]([O-])c3S(=O)(=O)c3ccccc3)c3cc(F)ccc32)cc1 | 11.9% | 10.3% | 0% | 0% | 0% | 41.1 µM | 4.38 |  | 
2 | CC1=C(CC(=O)OCCCCCCOc2no[n+]([O-])c2S(=O)(=O)c2ccccc2)c2cc(F)ccc2/C1=C\c1ccc([S+](C)[O-])cc1 (centres undefined) |  | 13.6% | 0% | 0% | 0% | 54.4 µM | 5.21 | Active | 
3 | CC1=C(CC(=O)OCCOCCOc2no[n+]([O-])c2S(=O)(=O)c2ccccc2)c2cc(F)ccc2/C1=C\c1ccc([S+](C)[O-])cc1 (centres undefined) |  |  | 0% | 0% | 0% |  | 4.59 |  | 
4 | CSc1ccc(/C=C2/C(C)=C(CC(=O)OCCCCOc3no[n+]([O-])c3S(=O)(=O)c3ccccc3)c3cc(F)ccc32)cc1 | 9.17% | 8.2% | 0% | 0% | 0% | 33 µM | 4.39 |  | 
5 | CC1=C(CC(=O)NCCOC(=O)/N=c2/c[n+](-c3ccccc3)[n-]o2)c2cc(F)ccc2/C1=C\c1ccc([S+](C)[O-])cc1 (centres undefined) |  |  | 46.4% | 76.7% | 41.4% |  |  |  | inactive
6 | CSc1ccc(/C=C2/C(C)=C(CC(=O)NCCOC(=O)/N=c3/c[n+](-c4ccccc4)[n-]o3)c3cc(F)ccc32)cc1 |  |  | 27.1% | 57.6% | 17.7% |  |  |  | inactive
7 | CC1=C(CC(=O)NCCNC(=O)/N=c2/c[n+](-c3ccccc3)[n-]o2)c2cc(F)ccc2/C1=C\c1ccc(S(C)(=O)=O)cc1 |  |  | 58.2% | 86.1% | 55.5% |  |  |  | inactive
8 | CC1=C(CC(=O)OC/C=C\COc2no[n+]([O-])c2S(=O)(=O)c2ccccc2)c2cc(F)ccc2/C1=C\c1ccc([S+](C)[O-])cc1 (centres undefined) |  | 12.8% | 0% | 0% | 0% | 51.1 µM | 4.92 | Active | 
9 | CC1=C(CC(=O)OCCOc2no[n+]([O-])c2S(=O)(=O)c2ccccc2)c2cc(F)ccc2/C1=C\c1ccc([S+](C)[O-])cc1 (centres undefined) |  |  | 0% | 0% | 0% |  | 4.55 |  | 
10 | CC1=C(CC(=O)/N=c2\c[n+](-c3ccccc3)[n-]o2)c2cc(F)ccc2/C1=C\c1ccc([S+](C)[O-])cc1 (centres undefined) |  |  | 29.8% | 64.6% | 20.6% |  |  |  | inactive
11 | CSc1ccc(/C=C2/C(C)=C(CC(=O)NCCNC(=O)/N=c3/c[n+](-c4ccccc4)[n-]o3)c3cc(F)ccc32)cc1 |  |  | 34.7% | 66.5% | 21.3% |  |  |  | inactive
12 | CSc1ccc(/C=C2/C(C)=C(CC(=O)OCCCOc3no[n+]([O-])c3S(=O)(=O)c3ccccc3)c3cc(F)ccc32)cc1 |  |  | 21.2% | 34.9% | 15.7% |  | 4.31 |  | 
13 | CC1=C(CC(=O)NCCNC(=O)/N=c2/c[n+](-c3ccccc3)[n-]o2)c2cc(F)ccc2/C1=C\c1ccc([S+](C)[O-])cc1 (centres undefined) |  |  | 46.7% | 74% | 36.3% |  |  |  | inactive
14 | CC1=C(CC(=O)NCCOC(=O)/N=c2/c[n+](-c3ccccc3)[n-]o2)c2cc(F)ccc2/C1=C\c1ccc(S(C)(=O)=O)cc1 |  |  | 45.9% | 76.5% | 37.3% |  |  |  | inactive
15 | CC1=C(CC(=O)OCCOCCOc2no[n+]([O-])c2S(=O)(=O)c2ccccc2)c2cc(F)ccc2/C1=C\c1ccc(S(C)(=O)=O)cc1 |  |  | 0% | 0% | 0% |  |  |  | 
16 | CSc1ccc(/C=C2/C(C)=C(CC(=O)OCCCCCCOc3no[n+]([O-])c3S(=O)(=O)c3ccccc3)c3cc(F)ccc32)cc1 |  |  | 41.7% | 57.2% | 29.2% |  |  |  | 
17 | CC1=C(CC(=O)/N=c2\c[n+](-c3ccccc3)[n-]o2)c2cc(F)ccc2/C1=C\c1ccc(S(C)(=O)=O)cc1 |  |  | 74.5% | 108% | 81.1% |  |  |  | 
18 | CC1=C(CC(=O)OCCCCCCO[N+](=O)[O-])c2cc(F)ccc2/C1=C\c1ccc(S(C)(=O)=O)cc1 |  |  | 59% | 93.3% | 64% |  |  |  | 
19 | CC1=C(CC(=O)O)c2cc(F)ccc2/C1=C\c1ccc([S+](C)[O-])cc1 (centres undefined) [SULINDAC] |  | < 1% | 101% | 87.3% | 89.3% | 1.1 µM |  |  | 
20 | CC1=C(CC(=O)OC(CO[N+](=O)[O-])CO[N+](=O)[O-])c2cc(F)ccc2/C1=C\c1ccc([S+](C)[O-])cc1 (centres undefined) |  |  | 44.9% | 46.5% | 30.2% |  |  |  | 
21 | CC1=C(CC(=O)OCC(CO[N+](=O)[O-])(CO[N+](=O)[O-])CO[N+](=O)[O-])c2cc(F)ccc2/C1=C\c1ccc([S+](C)[O-])cc1 (centres undefined) |  |  | 79.8% | 86% | 89.6% |  |  |  | 
22 | CC1=C(CC(=O)OCCCCO)c2cc(F)ccc2/C1=C\c1ccc([S+](C)[O-])cc1 (centres undefined) |  |  | 76.9% | 96.6% | 96.5% |  |  |  | 
